Measurements taken from patent US5800838A, “Composition that inhibits or destroys at least one unicellular living organism containing fluorine F- and Lithium li+” (priority 1987, dated 1998).
Where two headings read alike, the source gives them in different places.

Assays:
Neisseria gonorrhoea = assay: MIC on hospital strains (Example 13); format: cell-based; settings: read-out: MIC of benzalkonium chloride
Procedure: (§1) The same trials as in example 12 were carried out on hospital strains of various microorganisms.

Sarcina lutea = assay: MIC on hospital strains (Example 13); format: cell-based; settings: Micrococcus luteus, read-out: MIC of benzalkonium chloride
Procedure: as §1

Escherichia coli = assay: MIC on hospital strains (Example 13); format: cell-based; settings: read-out: MIC of benzalkonium chloride
Procedure: as §1

Streptococcus faecalis = assay: MIC on hospital strains (Example 13); format: cell-based; settings: Enterococcus faecalis, read-out: MIC of benzalkonium chloride
Procedure: as §1

[1] = test system: Mycobacterium smegmatis CNCM 7 326; assay: MIC, French standard NF T 72-150, AFNOR strain; format: cell-based; settings: in the presence of LiF at 1 mg/l
Procedure: (§2) French standard NF T 72-150, March 1981, was followed by the trials carried out. The trials were performed on the strains defined by the AFNOR standard.
(§3) The results obtained on the strains defined by the AFNOR standard for benzalkonium chloride alone and for benzalkonium chloride with the addition of 1 mg/l of sodium fluoride were already given in unpublished European Patent Application 86/402,716.4, and have been recorded again.

[2] = test system: Pseudomonas aeruginosa CNCM A 22; assay: MIC, French standard NF T 72-150, AFNOR strain; format: cell-based; settings: in the presence of LiF at 1 mg/l
Procedure: as §2, §3

[3] = test system: Staphylococcus aureus Oxford strain CNCM 53 154; assay: MIC, French standard NF T 72-150, AFNOR strain; format: cell-based; settings: in the presence of LiF at 1 mg/l
Procedure: as §2, §3

[4] = test system: Streptococcus faecalis CNCM 5 855; assay: MIC, French standard NF T 72-150, AFNOR strain; format: cell-based; settings: in the presence of LiF at 1 mg/l
Procedure: as §2, §3

[5] = test system: Escherichia coli CNCM 54 127; assay: MIC, French standard NF T 72-150, AFNOR strain; format: cell-based; settings: in the presence of LiF at 1 mg/l
Procedure: as §2, §3

Gardnerella vaginalis = assay: Number of strains inhibited, bactericidal substance incorporated in culture medium (first trial); format: cell-based; settings: for MBC: Gardnerella vaginalis, 24 h, read-out: totally lethal concentration; for number of strains inhibited out of the 32 tested: NaF or LiF 1 mg/l where added
Procedure: In the first trial, the sample of bactericidal substance was incorporated directly in the specific culture edium of the microorganism. A concentration series of the bactericidal substance was prepared in the geometric ratio of 2, from 400 μg/ml to 1.56 μg/ml. The cell concentration used in the seeding of the Petri dishes was […]. A 24-hour incubation was performed at 37° C. and then, for each wild-type strain tested, the concentration of primary principle destroying all the microorganisms (see method of Professor F. CATALAN et al., Institut A. FOURNIER, PARIS) was determined. The trail was performed on 32 wild-type strains of Gardnerella vaginalis originating from hospital sources and with benzalkonium chloride and then nonoxinol 9 as active principles, and with sodium fluoride NaF at a concentration of 1 mg/l and then lithium fluoride LiF at a concentration of 1 mg/l as activating principles.

MAC COY cells = settings: mouse
DUCREY's bacillus = assay: MIC with respect to DUCREY's bacillus; format: cell-based, DUCREY's Haemophilus; settings: read-out: MIC of the primary active principle
Procedure: The methodology employed is that described by Professor F. CATALAN, P. SEDNAOUI, A. MILOVANOVIC et al., Institut A. FOURNIER, PARIS.
The trials were performed on 8 wild-type strains of DUCREY's Haemophilus. The following results were recorded with respect to these strains: […]

[6] = test system: Mycobacterium smegmatis CNCM 7 326; settings: cited from earlier work
spermatozoa = settings: in the initial 1 millilitre, cited from earlier work
Pseudomonas aeruginosa = assay: MIC on 200 wild-type strains of Pseudomonas aeruginosa (Examples 19 and 20); format: cell-based; settings: Pseudomonas aeruginosa
Procedure: With the same methodology as above, the MIC values of benzalkonium chloride alone, in the presence of the KATHON CG (registered trademark) preservative (1 mg/l), and then in the presence of KATHON CG (registered trademark) (1 mg/l) and lithium fluoride (1 mg/l), were determined. 200 wild-type strains of Pseudomonas aeruginosa were tested.
The same trial as in Example 19 was performed, but with nonoxinol 9 as the primary active principle: 200 wild-type strains of Pseudomonas aeruginosa were also tested.

[7] = test system: Escherichia coli CNCM 54 127; settings: cited from earlier work
[8] = in the presence of LiF at 1 ppm
[9] = in the presence of NaF at 1 mg/l

CCCCCCCCCCCCCC[N+](C)(C)Cc1ccccc1.[Cl-] [benzalkonium chloride, myristyldimethylbenzylammonium chloride]
MIC (Neisseria gonorrhoea; alone): 1.15 µg/mL | MIC (Neisseria gonorrhoea; [8]): 0.6 µg/mL | MIC (Sarcina lutea; alone): 11 µg/mL | MIC (Sarcina lutea; [8]): 7.5 µg/mL | MIC (Escherichia coli; alone): 8 µg/mL | MIC (Escherichia coli; [8]): 6.5 µg/mL | MIC (Streptococcus faecalis; alone): 15 µg/mL | MIC (Streptococcus faecalis; [8]): 9 µg/mL | MIC of benzalkonium chloride [1]: 22 µg/mL | MIC of benzalkonium chloride [2]: 15 µg/mL | MIC of benzalkonium chloride [3]: 1.1 µg/mL | MIC of benzalkonium chloride [4]: 2.8 µg/mL | MIC of benzalkonium chloride [5]: 2 µg/mL | MBC (Gardnerella vaginalis; alone): 50 µg/mL | MBC (Gardnerella vaginalis; in the presence of LiF): 12.5 µg/mL | MBC (Gardnerella vaginalis; in the presence of NaF): 25 µg/mL | number of strains inhibited out of the 32 tested (Gardnerella vaginalis; primary active principle 1.56 mg/l): 0 | number of strains inhibited out of the 32 tested (Gardnerella vaginalis; primary active principle 3.125 mg/l): 0 | number of strains inhibited out of the 32 tested (Gardnerella vaginalis; primary active principle 6.25 mg/l): 1 | number of strains inhibited out of the 32 tested (Gardnerella vaginalis; primary active principle 12.5 mg/l): 28 | number of strains inhibited out of the 32 tested (Gardnerella vaginalis; primary active principle 25 mg/l): 31 | number of strains inhibited out of the 32 tested (Gardnerella vaginalis; primary active principle 50 mg/l): 32 | threshold of cytotoxic activity (MAC COY cells): 0.01% | MIC (DUCREY's bacillus; in the presence of LiF (1 mg/l)): 65 µg/mL | MIC (DUCREY's bacillus; in the presence of NaF (1 mg/l)): 85 µg/mL | MIC (DUCREY's bacillus): 100 µg/mL | MIC of benzalkonium chloride ([6]; alone): 30 µg/mL | MIC of benzalkonium chloride [6, 9]: 26 µg/mL | MIC of benzalkonium chloride (spermatozoa; alone): 0.006% | MIC of benzalkonium chloride (spermatozoa; with 1 ml solution containing 0.0001% F^- anions): 0.002% | MIC (Pseudomonas aeruginosa; + KATHON CG (1 mg/l) + LiF (1 mg/l), strain Tic R βLac^+): 16 µg/mL | MIC (Pseudomonas aeruginosa; + KATHON CG (1 mg/l) + LiF (1 mg/l), strain Tic R βLac^+ OXA): 16 µg/mL | MIC (Pseudomonas aeruginosa; + KATHON CG (1 mg/l) + LiF (1 mg/l), strain Tic R βLac^+ PSE): 32 µg/mL | MIC (Pseudomonas aeruginosa; + KATHON CG (1 mg/l) + LiF (1 mg/l), strain Tic R βLac^+ TEM): 32 µg/mL | MIC (Pseudomonas aeruginosa; + KATHON CG (1 mg/l) + LiF (1 mg/l), strain Tic R βLac^+ cephalosporinase): 32 µg/mL | MIC (Pseudomonas aeruginosa; + KATHON CG (1 mg/l) + LiF (1 mg/l), strain Tic S βLac^-): 16 µg/mL | MIC (Pseudomonas aeruginosa; + KATHON CG (1 mg/l), strain Tic R βLac^+ OXA, read-out: MIC): 32 µg/mL | MIC (Pseudomonas aeruginosa; + KATHON CG (1 mg/l), strain Tic R βLac^+ PSE, read-out: MIC): 64 µg/mL | MIC (Pseudomonas aeruginosa; + KATHON CG (1 mg/l), strain Tic R βLac^+ TEM, read-out: MIC): 32 µg/mL | MIC (Pseudomonas aeruginosa; + KATHON CG (1 mg/l), strain Tic R βLac^+ cephalosporinase, read-out: MIC): 128 µg/mL | MIC (Pseudomonas aeruginosa; + KATHON CG (1 mg/l), strain Tic R βLac^+, read-out: MIC): 32 µg/mL | MIC (Pseudomonas aeruginosa; + KATHON CG (1 mg/l), strain Tic S βLac^-, read-out: MIC): 16 µg/mL | MIC (Pseudomonas aeruginosa; alone, strain Tic R βLac^+): 64 µg/mL | MIC (Pseudomonas aeruginosa; alone, strain Tic R βLac^+ OXA, read-out: MIC): 64 µg/mL | MIC (Pseudomonas aeruginosa; alone, strain Tic R βLac^+ PSE, read-out: MIC): 64 µg/mL | MIC (Pseudomonas aeruginosa; alone, strain Tic R βLac^+ TEM, read-out: MIC): 32 µg/mL | MIC (Pseudomonas aeruginosa; alone, strain Tic R βLac^+ cephalosporinase, read-out: MIC): 128 µg/mL | MIC (Pseudomonas aeruginosa; alone, strain Tic S βLac^-, read-out: MIC): 32 µg/mL | MIC of benzalkonium chloride ([7]; alone): 6.57 µg/mL | MIC of benzalkonium chloride [7, 9]: 3 µg/mL
